ChEMBL document CHEMBL1123021, “3-Amino-beta-carboline derivatives and the benzodiazepine receptor. Synthesis of a selective antagonist of the sedative action of diazepam” (J Med Chem, 1985)

The compounds below were run against GABA-A receptor; anion channel (assay: Inhibition of [3H]- flunitrazepam binding to GABA-A Benzodiazepine receptor of rat cerebral cortex membranes).
Type: cell membranes, Membrane

Row | SMILES | IC50 [µM]
1 | CCNc1cc2c3ccccc3nc-2c[nH]1 | 0.46
2 | Nc1cc2c(cn1)[nH]c1ccccc12 | 25
3 | CCOC(=O)Nc1cc2c3ccccc3nc-2c[nH]1 | 0.08
4 | CC(=O)Nc1cc2c3ccccc3nc-2c[nH]1 | 4
5 | O=CNc1cc2c3ccccc3nc-2c[nH]1 | 4.7
6 | COC(=O)Nc1cc2c3ccccc3nc-2c[nH]1 | 0.071
7 | CCOC(=O)c1cc2c(cn1)[nH]c1ccccc12 | 0.002
8 | O=C(Nc1cc2c3ccccc3nc-2c[nH]1)C(F)(F)F | 6.3
9 | CS(=O)(=O)Nc1cc2c3ccccc3nc-2c[nH]1 | 62
